This note sets out measurements from patent US20050255493A1, “Molecular targeting of the IGF-1 receptor” (priority 2002, published 2005).

One data set concerns IGF1R mRNA. Nature of the data set: Oligonucleotide scanning array hybridisation with labelled transcript. It counts as binding, human. To be noted: scanning array, peak 4 region (FIG. 11B). The method, then: Scanning arrays complementary to the region of the IGF1R mRNA from position 537-685 were prepared using the standard techniques described in Southern E. M. et al., Nucleic Acids Res., 1994, 22(8): 1368-1373; and Sohail, M. and Southern, E. M. “Using oligonucleotide scanning arrays to find effective antisense reagents”, Methods in Molecular Biology, vol. 170: DNA Arrays: Methods and Protocols, Ed J. B. Rampal, Humana Press Inc., Totowa, N.J.
The scanning arrays comprise sets of oligonucleotides of various lengths. A series of oligonucleotides, complementary to the target mRNA, is made by sequential coupling of nucleotides to a solid surface. The DNA synthesis reagents are applied to a confined area on the surface of the solid support using a mask. The mask is shifted along the surface after each round of coupling, resulting in a series of oligonucleotides each complementary to a region of the target sequence.
• 2. Remove 1 μL for quantitation (see below). • 3. Remove unincorporated label by Sephadex® G25 column chromatography (see Note 11). • 4. Save 1 μL of the purified transcript for quantitation (see below). • 5. Check the integrity of the transcript by denaturing polyacrylamide gel electrophoresis (10). • 6. Add 10 μL of the scintillation fluid to the samples saved in Steps 2 and 4. • 7. Mix by vortexing and count the samples in a scintillation counter for 1 min. • 8. Calculate the percent incorporation: [formula] • 9. Calculate the amount of RNA made: [formula] Hybridisation to Arrays Made on Polypropylene • 1. Place the array in the hybridisation tube, coiling it in a spiral. • 2. Dilute the radiolabelled transcript in an appropriate volume (10-20 mL depending upon the size of the array and the hybridisation tube) of hybridisation buffer. The mix should cover the array along the length of the tube. • 3. Place items 1 and 2 in the oven at desired temperature for 30 min. Also put approximately 100 mL of the hybridisation buffer in the oven: this is to be used to wash the array at the end of hybridisation. • 4. Pour the hybridisation mix into the tube containing the array and hybridise for 3-4 h. • 5. Remove the hybridisation mix. Briefly wash the array with the hybridisation buffer from Step 3, air dry, cover with cling film and expose to a storage phosphor screen for 16-20 h (see Note 12). • 6. Scan the screen on PhosphorImager or STORM and analyse the image using xvseq (see below). Hybridisation to Arrays Made on Glass • 1. Clean the non-array glass plate with acetone and ethanol to ensure it is grease-free and siliconise it by treatment with dimethyl dichlorosilane solution and place it in lidded box. Also place moist paper towel in the box. • 2. Dilute the radiolabelled transcript in an appropriate volume of the hybridisation buffer (for example, for an array of 250 mm×50 mm use 500-750 μL). • 3. Place items 1 and 2 in an incubator at desired temprature for 30 min. Also put approximately 100 mL of the hybridisation buffer in the oven: this is to be used to wash the array at the end of hybridisation. • 4. Using a micropipette, pipette the hybridisation mix in a line evenly along the length of the non-array glass plate, avoiding formation of air bubbles. • 5. Starting at one end, carefully place the scanning array (face down) on top of the hybridisation mix. The mix will spread out and form a thin film between the two plates. Incubate for 3-4 h. • 6. Separate the plates from each other and wash the array plate with hybridisation buffer to remove unbound mix. Drain the plate, air dry, cover with cling film and expose to a storage phosphor screen for 16-20 h. • 7. Scan the screen on PhosphorImager or STORM and analyse the image using xvseq (see below). Alternative Hybridisation Protocol for Glass or Polypropylene • 1. Assemble with clips the array plate (or polypropylene array pasted with PhotoMount™ on a glass plate) and the non-array plate, using rubber tubing as spacers on two sides. • 2. […]

A further data set has as its system A549 cells. Nature of the data set: Anchorage-independent growth of A549 cells (polyHema plates, MTS assay). It counts as cell-based, human. To be noted: 200 nM duplex, MTS assay 10 days later. The method, then: FIG. 12 illustrates growth of A549 cells under anchorage-independent conditions, in 24-well plates coated with polyHema to prevent adherence. Cells were transfected with 200 nM duplex, re-seeded the next day into polyHema-coated plates at 500 cells/well. MTS assay performed 10 days later. UT=untransfected. **p<0.01 for comparison of R4 with Scr.
In general terms: Tetrazolium dyes change colour on reduction, which living cells bring about.

In a further data set the test system is MDA-MB-231 cells. The data set can be described thus: Chemosensitisation of MDA-MB-231 cells to etoposide (clonogenic assay). In kind it is cell-based, human. To be noted: 200 nM. The method, then:
FIG. 14 illustrates chemosensitisation of MDA-MB-231 cells to etoposide. MDA-MB-231 cells were transfected with 200 nM siRNA R4 or scrambled control duplex, re-seeded the following day at 2000 cells/6 cm dish, and the following day treated overnight with etoposide at the indicated concentrations. Thereafter the drug was washed off, dishes were incubated for 1 week at 37° C., and visible colonies were stained and counted.

The test system of the next data set is DU145 cells. The data set can be described thus: Etoposide-induced apoptosis in DU145 cells (caspase 3/7 activation, annexin V staining). In kind it is cell-based, human. The note with it: 200 nM, annexin staining and caspase 3/7 activation. The protocol:
FIG. 13 illustrates the effect of siRNA R4 on apoptosis in prostate cancer cells. DU145 cells were transfected with 200 nM R4 or scrambled control, and after 48 hr were treated with etoposide or vehicle without drug. After overnight incubation at 37° C. the incidence of apoptosis was measured by caspase 3/7 activation assay (Promega; left panel), or by flow cytometry after staining with annexin V and propodium iodide (right panel).

The test system of data set [1] is UC101 human ovarian cancer cells. The data set can be described thus: Tumorigenicity of UC101 ovarian cancer cells transfected with siRNA (xenografts). In kind it is in vivo, female athymic (nu/nu mice). The note with it: nu/nu mice. The method, then:
UC101 ovarian cancer cells were transfected with 200 nM siRNA, mixed with irradiated NIH-3T3 cells and inoculated into the flanks of female athymic (nu/nu mice).
Tumorigenicity testing was conducted using UC101 human ovarian cancer cells transfected with 200 nM siRNA. After 48 hr the cells were inoculated into the flanks of female athymic (nu/nu mice), using 5×10^6 tumour cells mixed with 5×10^6 irradiated NIH-3T3 cells per mouse. Tumours were measured and volumes calculated as described (Macaulay et al., Oncogene 20: 2029-40, 2001). All procedures were performed in accordance with the Home Office Scientific Procedures Act 1986, and with the approval of the Animal Ethics Committee of Cancer Research UK.

[2] abbreviates: UC101 cells transfected with 200 nM siRNA.

Take “R4: RNAi duplex CAAUGAGUACAACUACCGCTT / TTGUUACUCAUGUUGAUGGCG, SEQ ID NO:30 (CAAUGAGUACAACUACCGCNN; second strand not cited, chemistry not fully specified)”: in the data set with IGF1R mRNA, the “Difference in hybridization intensity between the 19mer ASOs equivalent to R4 and R5” value was roughly 6.5 fold. Further, the “Anchorage-independent growth” value with A549 cells is given as “significant inhibition of anchorage-independent growth”. Also, the “Sensitivity to etoposide by clonogenic assay” value in the data set with MDA-MB-231 cells is listed as “significantly enhanced”. For the same substance, the “Etoposide-induced apoptosis” value in the data set on DU145 cells was “enhanced etoposide-induced apoptosis”. For the same substance, in data set [1] (setting [2]), the “Duration of tumour growth delay (remaining two animals)” value is reported as roughly 18 days and the “Time remaining tumour-free (two of 4 mice)” value is listed as greater than 60 days. The “Animals in which tumour formation was abolished” value in data set [1] (single transfection, 200 nM siRNA, UC101 cells) is listed as 2/4.
